Test results taken from US8946413B2 (Pfizer Inc., priority 2008, dated 2015).

target: T1, CCR2 (Homo sapiens, UniProt P41597); assay: hCCR2 (125-I hMCP-1) small molecule binding assay on human PBMCs; conditions: 300 nM, 1 hr preincubation, human PBMCs; read-out: % @300 nM (printed in column IC50 1 hr preinc)
T1 construct: (leukophoresis pack); host or cells: human peripheral blood mononuclear cells (PBMCs) from a normal human leukophoresis pack
Outline: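 Ficoll-isolated human PBMCs pre-incubated 30 min or 1 h with compound at 0.333 μM final (0.67% DMSO), then incubated 30 min at room temperature with 150 pM 125I-hMCP-1 in RPMI/0.1% BSA/20 mM HEPES. Filter-bound radioactivity counted by gamma counter. 100% inhibition defined with 1 μM hMCP-1; IC50 plates run n=2.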

T1 sequence (P41597 whole entry): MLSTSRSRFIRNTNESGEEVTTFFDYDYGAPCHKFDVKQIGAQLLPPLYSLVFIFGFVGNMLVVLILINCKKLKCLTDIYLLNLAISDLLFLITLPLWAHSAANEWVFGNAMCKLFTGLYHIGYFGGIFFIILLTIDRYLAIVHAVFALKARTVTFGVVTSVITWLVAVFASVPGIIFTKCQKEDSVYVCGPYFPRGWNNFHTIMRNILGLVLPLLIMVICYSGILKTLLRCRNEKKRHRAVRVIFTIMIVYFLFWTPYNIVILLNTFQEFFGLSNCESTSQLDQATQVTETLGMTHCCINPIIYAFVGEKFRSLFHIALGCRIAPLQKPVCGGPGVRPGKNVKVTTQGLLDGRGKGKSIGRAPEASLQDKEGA

| inhibition at 0.3 µM [%] | Compound |
| --- | --- |
| 1.5 | CO[C@@H]1COCC[C@@H]1N[C@@H]1CC[C@H](C(=O)N2C[C@@H]3C[C@H]2CN3c2cc(C(F)(F)F)ccn2)C1 [Example 65, ((1S,3R)-3-((3S,4S)-3-methoxy-tetrahydro-2H-pyran-4-ylamino)cyclopentyl)((1S,4S)-5-(4-(trifluoromethyl)pyridin-2-yl)-2,5-diaza-bicyclo[2.2.1]heptan-2-yl)methanone] |

same assay, conditions: 125I-MCP-1, human PBMCs, 30 min preincubation; read-out: IC50 (nM) 30 min preinc

| IC50 [nM] | Compound |
| --- | --- |
| 25.3 | CO[C@@H]1COCC[C@@H]1N[C@@H]1CC[C@@](C(=O)N2C[C@@H]3C[C@H]2CN3c2ccnc(C(F)(F)F)n2)(C2(O)CCC2)C1 [Example 48, 1,5-anhydro-2,3-dideoxy-3-{[(1R,3S)-3-(1-hydroxycyclobutyl)-3-({(1S,4S)-5-[2-(trifluoromethyl)pyrimidin-4-yl]-2,5-diazabicyclo[2.2.1]hept-2-yl}carbonyl)cyclopentyl]amino}-4-O-methyl-D-erythro-pentitol] |
| 35.8 | CO[C@@H]1COCC[C@@H]1N[C@@H]1CC[C@@](C(=O)N2C[C@@H]3C[C@H]2CN3c2cc(C(F)(F)F)ncn2)(C2(O)CCC2)C1 [Example 49, 1,5-anhydro-2,3-dideoxy-3-{[(1R,3S)-3-(1-hydroxycyclobutyl)-3-({(1S,4S)-5-[6-(trifluoromethyl)pyrimidin-4-yl]-2,5-diazabicyclo[2.2.1]hept-2-yl}carbonyl)cyclopentyl]amino}-4-O-methyl-D-erythro-pentitol] |
| 7.14 | CO[C@@H]1COCC[C@@H]1N[C@@H]1CC[C@@](C(=O)N2C[C@@H]3C[C@H]2CN3c2cncc(C(F)(F)F)n2)(C2(O)CCC2)C1 [Example 50, 1,5-anhydro-2,3-dideoxy-3-{[(1R,3S)-3-(1-hydroxycyclobutyl)-3-({(1S,4S)-5-[6-(trifluoromethyl)pyrazin-2-yl]-2,5-diazabicyclo[2.2.1]hept-2-yl}carbonyl)cyclopentyl]amino}-4-O-methyl-D-erythro-pentitol] |
| 22.8 | CO[C@@H]1COCC[C@@H]1N[C@@H]1CC[C@@](C(=O)N2C[C@@H]3C[C@H]2CN3c2ccnc(C(F)(F)F)c2)(C2(O)CCC2)C1 [Example 51, 1,5-anhydro-2,3-dideoxy-3-{[(1R,3S)-3-(1-hydroxycyclobutyl)-3-({(1S,4S)-5-[2-(trifluoromethyl)pyridin-4-yl]-2,5-diazabicyclo[2.2.1]hept-2-yl}carbonyl)cyclopentyl]amino}-4-O-methyl-D-erythro-pentitol] |
| 5.4 | CO[C@@H]1COCC[C@@H]1N[C@@H]1CC[C@@](C(=O)N2C[C@@H]3C[C@H]2CN3c2cc(C(F)(F)F)ccn2)(C(C)(C)O)C1 [Example 52, 1,5-anhydro-2,3-dideoxy-3-{[3-(1-hydroxy-1-methylethyl)-3-({5-[4-(trifluoromethyl)pyridin-2-yl]-2,5-diazabicyclo[2.2.1]hept-2-yl}carbonyl)cyclopentyl]amino}-4-O-methylpentitol] |
| 27.6 | CO[C@@H]1COCC[C@@H]1N[C@@H]1CC[C@@](C(=O)N2C[C@@H]3C[C@H]2CN3c2cc(C(F)(F)F)ncn2)(C(C)(C)O)C1 [Example 53, 1,5-anhydro-2,3-dideoxy-3-{[3-(1-hydroxy-1-methylethyl)-3-({5-[6-(trifluoromethyl)pyrimidin-4-yl]-2,5-diazabicyclo[2.2.1]hept-2-yl}carbonyl)cyclopentyl]amino}-4-O-methylpentitol] |
| 8.46 | CO[C@@H]1COCC[C@@H]1N[C@@H]1CC[C@@](C(=O)N2C[C@@H]3C[C@H]2CN3c2nccc(C(F)(F)F)n2)(C(C)(C)O)C1 [Example 54] |
| 28.3 | CO[C@@H]1COCC[C@@H]1N[C@@H]1CC[C@@](C(=O)N2C[C@@H]3C[C@H]2CN3c2cc(C(F)(F)F)cnn2)(C(C)(C)O)C1 [Example 55, 1,5-anhydro-2,3-dideoxy-3-{[3-(1-hydroxy-1-methylethyl)-3-({5-[5-(trifluoromethyl)pyridazin-3-yl]-2,5-diazabicyclo[2.2.1]hept-2-yl}carbonyl)cyclopentyl]amino}-4-O-methylpentitol] |
| 32.8 | CO[C@@H]1COCC[C@@H]1N[C@@H]1CC[C@@](C(=O)N2C[C@@H]3C[C@H]2CN3c2ccnc(C(F)(F)F)n2)(C(C)(C)O)C1 [Example 56, 1,5-anhydro-2,3-dideoxy-3-{[3-(1-hydroxy-1-methylethyl)-3-({5-[2-(trifluoromethyl)pyrimidin-4-yl]-2,5-diazabicyclo[2.2.1]hept-2-yl}carbonyl)cyclopentyl]amino}-4-O-methylpentitol] |
| 4.34 | CO[C@@H]1COCC[C@@H]1N[C@@H]1CC[C@@](C(=O)N2C[C@@H]3C[C@H]2CN3c2cccc(C(F)(F)F)n2)(C(C)(C)O)C1 [Example 57, 1,5-anhydro-2,3-dideoxy-3-{[3-(1-hydroxy-1-methylethyl)-3-({5-[6-(trifluoromethyl)pyridin-2-yl]-2,5-diazabicyclo[2.2.1]hept-2-yl}carbonyl)cyclopentyl]amino}-4-O-methylpentitol] |
| 38.5 | CO[C@@H]1COCC[C@@H]1N[C@@H]1CC[C@@](C(=O)N2C[C@@H]3C[C@H]2CN3c2ccnc(C(F)(F)F)c2)(C(C)(C)O)C1 [Example 58, 1,5-anhydro-2,3-dideoxy-3-{[3-(1-hydroxy-1-methylethyl)-3-({5-[2-(trifluoromethyl)pyridin-4-yl]-2,5-diazabicyclo[2.2.1]hept-2-yl}carbonyl)cyclopentyl]amino}-4-O-methylpentitol] |
| 17.7 | CO[C@@H]1COCC[C@@H]1N[C@@H]1CC[C@@](C(=O)N2C[C@@H]3C[C@H]2CN3c2cncc(C(F)(F)F)n2)(C(C)(C)O)C1 [Example 59, 1,5-anhydro-2,3-dideoxy-3-{[3-(1-hydroxy-1-methylethyl)-3-({5-[6-(trifluoromethyl)pyrazin-2-yl]-2,5-diazabicyclo[2.2.1]hept-2-yl}carbonyl)cyclopentyl]amino}-4-O-methylpentitol] |
| 2.4 | CO[C@@H]1COCC[C@@H]1N[C@@H]1CC[C@@](C(=O)N2C[C@@H]3C[C@H]2CN3c2cc(C(F)(F)F)ccn2)(C2CCOC2)C1 (stereo partly drawn) [Example 60, ((1S,3R)-3-((3S,4S)-3-methoxy-tetrahydro-2H-pyran-4-ylamino)-1-(tetrahydrofuran-3-yl)cyclopentyl)((1S,4S)-5-(4-(trifluoromethyl)pyridin-2-yl)-2,5-diaza-bicyclo[2.2.1]heptan-2-yl)methanone] |
| 5.9 | CO[C@@H]1COCC[C@@H]1N[C@@H]1CC[C@@](C(=O)N2C[C@@H]3C[C@H]2CN3c2cc(C(F)(F)F)ccn2)(C2CCOC2)C1 (stereo partly drawn) [Example 61, ((1S,3R)-3-((3S,4S)-3-methoxy-tetrahydro-2H-pyran-4-ylamino)-1-(tetrahydrofuran-3-yl)cyclopentyl)((1S,4S)-5-(4-(trifluoromethyl)pyridin-2-yl)-2,5-diaza-bicyclo[2.2.1]heptan-2-yl)methanone] |
| 1.3 | CO[C@@H]1COCC[C@@H]1N[C@@H]1CC[C@@](C(=O)N2C[C@@H]3C[C@H]2CN3c2cc(C(F)(F)F)ccn2)(C(O)C(F)(F)F)C1 (stereo partly drawn) [Example 62, ((1S,3R)-3-((3S,4S)-3-methoxy-tetrahydro-2H-pyran-4-ylamino)-1-(2,2,2-trifluoro-1-hydroxyethyl)cyclopentyl)((1S,4S)-5-(4-(trifluoromethyl)pyridin-2-yl)-2,5-diaza-bicyclo[2.2.1]heptan-2-yl)methanone] |
| 1.7 | CO[C@@H]1COCC[C@@H]1N[C@@H]1CC[C@@](C(=O)N2C[C@@H]3C[C@H]2CN3c2cc(F)cc(C(F)(F)F)c2)(C2CCOC2)C1 (stereo partly shown) [Example 66] |
| 3.4 | CO[C@@H]1COCC[C@@H]1N[C@@H]1CC[C@@](C(=O)N2C[C@@H]3[C@H](F)[C@H]2CN3c2cc(C(F)(F)F)ccn2)(C(C)C)C1 [Example 67, ((1R,4R,7S)-7-(fluoro)-5-(4-(trifluoromethyl)pyridin-2-yl)-2,5-diaza-bicyclo[2.2.1]heptan-2-yl)((1S,3R)-1-isopropyl-3-((3S,4S)-3-methoxy-tetrahydro-2H-pyran-4-ylamino)cyclopentyl)methanone] |
| 5.4 | CO[C@@H]1COCC[C@@H]1N[C@@H]1CC[C@@](C(=O)N2C[C@@H]3[C@H](O)[C@H]2CN3c2cc(C(F)(F)F)ccn2)(C(C)C)C1 [Example 68, ((1R,4R,7S)-7-hydroxy-5-(4-(trifluoromethyl)pyridin-2-yl)-2,5-diaza-bicyclo[2.2.1]heptan-2-yl)((1S,3R)-1-isopropyl-3-((3S,4S)-3-methoxy-tetrahydro-2H-pyran-4-ylamino)cyclopentyl)methanone] |
| 4.3 | CO[C@@H]1COCC[C@@H]1N[C@@H]1CC[C@@](C(=O)N2C[C@@H]3C(F)[C@H]2CN3c2cc(C(F)(F)F)ccn2)(C(C)C)C1 (stereo partly drawn) [Example 69, ((1R,4R)-7-fluoro-5-(4-(trifluoromethyl)pyridin-2-yl)-2,5-diaza-bicyclo[2.2.1]heptan-2-yl)((1S,3R)-1-isopropyl-3-((3S,4S)-3-methoxy-tetrahydro-2H-pyran-4-ylamino)cyclopentyl)methanone] |
| 8.7 | CO[C@@H]1COCC[C@@H]1N[C@@H]1CC[C@@](C(=O)N2C[C@@H]3C(O)[C@H]2CN3C(=O)OC(C)(C)C)(C(C)C)C1 (stereo partly drawn) [Example 70, (1R,4R,7S)-tert-butyl 7-hydroxy-5-((1S)-1-isopropyl-3-(3-methoxy-tetrahydro-2H-pryan-4-ylamino)cyclopentanecarbonyl)-2,5-diaza-bicyclo[2.2.1]heptane-2-carboxylate] |

same assay, conditions: 125I-MCP-1, human PBMCs, 1 hr preincubation; read-out: IC50 (nM) 1 hr preinc

| IC50 [nM] | Compound |
| --- | --- |
| 1.1 | CO[C@@H]1COCC[C@@H]1N[C@@H]1CC[C@@](C(=O)N2C[C@@H]3C[C@H]2CN3c2cc(C(F)(F)F)ccn2)(C(O)C(F)(F)F)C1 (stereo partly drawn) [Example 63, ((1S,3R)-3-((3S,4S)-3-methoxy-tetrahydro-2H-pyran-4-ylamino)-1-(2,2,2-trifluoro-1-hydroxyethyl)cyclopentyl)((1S,4S)-5-(4-(trifluoromethyl)pyridin-2-yl)-2,5-diaza-bicyclo[2.2.1]heptan-2-yl)methanone] |
